“Also recorded” adds a separate entry of the source.
Legend:
HepG2 cells = HepG2 cells on flat bottom plastic wells, energy sources at a range of concentrations; assay type: cell-based, human; conditions: for activity at 30 µM / activity at 100 µM / activity at 330 µM / activity at 1000 µM / activity at 3300 µM / activity at 10000 µM / activity at 15000 µM / activity at 20000 µM: Homo sapiens, HepG2, 72 h, read-out: HepG2 Cells Responses After 72 hours in Culture and a 4 hour Color Development Period; for activity at 30 µM: Conc. 0.03 mM; for activity at 100 µM: Conc. 0.10 mM; for activity at 330 µM: Conc. 0.33 mM; for activity at 1000 µM: Conc. 1.00 mM; for activity at 3300 µM: Conc. 3.3 mM; for activity at 10000 µM: Conc. 10 mM; for activity at 15000 µM: Conc. 15 mM; for activity at 20000 µM: Conc. 20 mM
Outline: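 HepG2 cells plated overnight at 4×10^4 cells/cm^2 in glucose-, glutamine- and pyruvate-free DME with 10% HI FBS, then exposed to each energy source at 0.033 to 20 mM final for 48 to 72 h at 37° C, 5% CO2. MTS/PMS colour read at 490 nm (reference 650 nm) after 4-24 h; cell-free plate OD subtracted, data normalised to % negative control (water, no energy source).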

[1] = test system: Undifferentiated HL-60 cells; test: Energy use by undifferentiated HL-60 cells; assay type: cell-based, human; conditions: for activity at 30 µM / activity at 100 µM / activity at 330 µM / activity at 1000 µM / activity at 3300 µM / activity at 10000 µM / activity at 15000 µM / activity at 20000 µM: Homo sapiens, HL-60, 24 h, read-out: Energy Use by Undifferentiated HL-60 Cells; for activity at 30 µM: Conc. 0.03 mM; for activity at 100 µM: Conc. 0.10 mM; for activity at 330 µM: Conc. 0.33 mM; for activity at 1000 µM: Conc. 1.00 mM; for activity at 3300 µM: Conc. 3.3 mM; for activity at 10000 µM: Conc. 10 mM; for activity at 15000 µM: Conc. 15 mM; for activity at 20000 µM: Conc. 20 mM
HL-60 cells [2] = test: Effect of 10 mM citric acid on HL-60 energy utilization; assay type: cell-based, human; conditions: for cell activity in the presence of citric acid, in words: 10 mM citric acid; for Effect of 10 mM Citric Acid on HL-60 Energy Utilization: negative control without energy sources and without citric acid
HL-60 cells [3] = test: Effect of 1 mM chloramphenicol on HL-60 energy utilization; assay type: cell-based, human; conditions: for Effect of 1 mM chloramphenicol on HL-60 Energy Utilization: negative control without chloramphenicol
Outline: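 Washed HL-60 cells (5×10^4/well) in DME-R with chloramphenicol (1 mM final) were exposed to test energy sources at 0.033 to 20 mM final for 24 h at 37° C, 5% CO2. MTS/MPMS reagent was then added and read 24 h later at 490 nm (650 nm reference). Cell-free plate OD was subtracted, and values were given as % of the negative control without chloramphenicol.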

ten strains of E. coli = assay type: cell-based, Escherichia coli; further: key: +: indicates that the organism tested was capable of utilizing the carbon source listed; −: indicates that the organism tested was not capable of utilizing the carbon source listed; indicates weak positive reactions
[4] = energy source 0.03 mM with 10 mM citric acid
[5] = energy source 0.10 mM with 10 mM citric acid
[6] = energy source 0.33 mM with 10 mM citric acid
[7] = energy source 1.00 mM with 10 mM citric acid
[8] = energy source 3.3 mM with 10 mM citric acid
[9] = energy source 10 mM with 10 mM citric acid
[10] = energy source 15 mM with 10 mM citric acid
[11] = energy source 20 mM with 10 mM citric acid
[12] = energy source 0.03 mM with 1 mM chloramphenicol
[13] = energy source 0.10 mM with 1 mM chloramphenicol
[14] = energy source 0.33 mM with 1 mM chloramphenicol
[15] = energy source 1.00 mM with 1 mM chloramphenicol
[16] = energy source 3.3 mM with 1 mM chloramphenicol
[17] = energy source 10 mM with 1 mM chloramphenicol
[18] = energy source 15 mM with 1 mM chloramphenicol
[19] = energy source 20 mM with 1 mM chloramphenicol

Row | SMILES | activity at 30 µM (HepG2 cells) [%] | activity at 100 µM (HepG2 cells) [%] | activity at 330 µM (HepG2 cells) [%] | activity at 1000 µM (HepG2 cells) [%] | activity at 3300 µM (HepG2 cells) [%] | activity at 10000 µM (HepG2 cells) [%] | activity at 15000 µM (HepG2 cells) [%] | activity at 20000 µM (HepG2 cells) [%] | activity at 30 µM [1] [%] | activity at 100 µM [1] [%] | activity at 330 µM [1] [%] | activity at 1000 µM [1] [%] | activity at 3300 µM [1] [%] | activity at 10000 µM [1] [%] | activity at 15000 µM [1] [%] | activity at 20000 µM [1] [%] | Effect of 10 mM Citric Acid on HL-60 Energy Utilization (HL-60 cells [2]; [4]) | Effect of 10 mM Citric Acid on HL-60 Energy Utilization (HL-60 cells [2]; [5]) | Effect of 10 mM Citric Acid on HL-60 Energy Utilization (HL-60 cells [2]; [6]) | Effect of 10 mM Citric Acid on HL-60 Energy Utilization (HL-60 cells [2]; [7]) | further results
1 | O=C[C@H](O)[C@@H](O)[C@@H](O)[C@H](O)C(=O)O [D-galacturonic acid] | 124 | 140 | 171 | 177 | 165 | 179 | 228 | 162 | 116 | 116 | 116 | 141 | 144 | 134 | 162 | 113 | 1.4 % of negative control | 12.8 % of negative control | 43.5 % of negative control | 61.8 % of negative control | cell activity in the presence of citric acid, in words (HL-60 cells [2]): acitivity; also recorded: capable of overcoming the antiproliferative effects of citric acid; Effect of 10 mM Citric Acid on HL-60 Energy Utilization (HL-60 cells [2]; [8]): 141.6 % of negative control; Effect of 10 mM Citric Acid on HL-60 Energy Utilization (HL-60 cells [2]; [9]): 177.0 % of negative control; Effect of 10 mM Citric Acid on HL-60 Energy Utilization (HL-60 cells [2]; [10]): 136.3 % of negative control; Effect of 10 mM Citric Acid on HL-60 Energy Utilization (HL-60 cells [2]; [11]): 110.8 % of negative control; Effect of 1 mM chloramphenicol on HL-60 Energy Utilization (HL-60 cells [3]; [12]): 0.2 % of negative control; Effect of 1 mM chloramphenicol on HL-60 Energy Utilization (HL-60 cells [3]; [13]): −2.7 % of negative control; Effect of 1 mM chloramphenicol on HL-60 Energy Utilization (HL-60 cells [3]; [14]): −4.6 % of negative control; Effect of 1 mM chloramphenicol on HL-60 Energy Utilization (HL-60 cells [3]; [15]): −4.6 % of negative control; Effect of 1 mM chloramphenicol on HL-60 Energy Utilization (HL-60 cells [3]; [16]): 7.9 % of negative control; Effect of 1 mM chloramphenicol on HL-60 Energy Utilization (HL-60 cells [3]; [17]): 8.4 % of negative control; Effect of 1 mM chloramphenicol on HL-60 Energy Utilization (HL-60 cells [3]; [18]): 5.0 % of negative control; Effect of 1 mM chloramphenicol on HL-60 Energy Utilization (HL-60 cells [3]; [19]): −12.8 % of negative control; carbon source utilization (ten strains of E. coli): +
2 | NC(=O)C[C@H](N)C(=O)O [L-asparagine] | 122 | 190 | 203 | 173 | 161 | 124 | 112 | 52.2 | 128 | 118 | 118 | 124 | 136 | 141 | 153 | 157 | 10.1 % of negative control | 15.3 % of negative control | 13.4 % of negative control | 24.6 % of negative control | Effect of 10 mM Citric Acid on HL-60 Energy Utilization (HL-60 cells [2]; [8]): 48.6 % of negative control; Effect of 10 mM Citric Acid on HL-60 Energy Utilization (HL-60 cells [2]; [9]): 100.1 % of negative control; Effect of 10 mM Citric Acid on HL-60 Energy Utilization (HL-60 cells [2]; [10]): 97.7 % of negative control; Effect of 10 mM Citric Acid on HL-60 Energy Utilization (HL-60 cells [2]; [11]): 98.3 % of negative control; Effect of 1 mM chloramphenicol on HL-60 Energy Utilization (HL-60 cells [3]; [12]): 6.3 % of negative control; Effect of 1 mM chloramphenicol on HL-60 Energy Utilization (HL-60 cells [3]; [13]): 17.4 % of negative control; Effect of 1 mM chloramphenicol on HL-60 Energy Utilization (HL-60 cells [3]; [14]): 7.6 % of negative control; Effect of 1 mM chloramphenicol on HL-60 Energy Utilization (HL-60 cells [3]; [15]): 3.1 % of negative control; Effect of 1 mM chloramphenicol on HL-60 Energy Utilization (HL-60 cells [3]; [16]): 12.1 % of negative control; Effect of 1 mM chloramphenicol on HL-60 Energy Utilization (HL-60 cells [3]; [17]): 22.9 % of negative control; Effect of 1 mM chloramphenicol on HL-60 Energy Utilization (HL-60 cells [3]; [18]): 20.9 % of negative control; Effect of 1 mM chloramphenicol on HL-60 Energy Utilization (HL-60 cells [3]; [19]): 30.2 % of negative control; carbon source utilization (ten strains of E. coli): + and −
3 | NC(=O)CC[C@H](N)C(=O)O [L-glutamine] | 103 | 114 | 205 | 218 | 260 | 224 | 146 | 111 | 167 | 214 | 227 | 237 | 249 | 220 | 198 | 172 | 15.0 % of negative control | 57.8 % of negative control | 57.1 % of negative control | 108.0 % of negative control | response in words (HepG2 cells; 0.033 to 20 mM, 72 hour culture): dose dependent response in the 72 hour culture up to 3.3 mM; energy source use in words ([1]; undifferentiated HL-60 cells): responsive to high concentrations; cell activity in the presence of citric acid, in words (HL-60 cells [2]): able to restore cell activity to a level equal or greater than the negative control; Effect of 10 mM Citric Acid on HL-60 Energy Utilization (HL-60 cells [2]; [8]): 135.0 % of negative control; Effect of 10 mM Citric Acid on HL-60 Energy Utilization (HL-60 cells [2]; [9]): 125.3 % of negative control; Effect of 10 mM Citric Acid on HL-60 Energy Utilization (HL-60 cells [2]; [10]): 107.3 % of negative control; Effect of 10 mM Citric Acid on HL-60 Energy Utilization (HL-60 cells [2]; [11]): 86.7 % of negative control; Effect of 1 mM chloramphenicol on HL-60 Energy Utilization (HL-60 cells [3]; [12]): 33.7 % of negative control; Effect of 1 mM chloramphenicol on HL-60 Energy Utilization (HL-60 cells [3]; [13]): 39.8 % of negative control; Effect of 1 mM chloramphenicol on HL-60 Energy Utilization (HL-60 cells [3]; [14]): 60.6 % of negative control; Effect of 1 mM chloramphenicol on HL-60 Energy Utilization (HL-60 cells [3]; [15]): 69.0 % of negative control; Effect of 1 mM chloramphenicol on HL-60 Energy Utilization (HL-60 cells [3]; [16]): 85.0 % of negative control; Effect of 1 mM chloramphenicol on HL-60 Energy Utilization (HL-60 cells [3]; [17]): 90.0 % of negative control; Effect of 1 mM chloramphenicol on HL-60 Energy Utilization (HL-60 cells [3]; [18]): 89.0 % of negative control; Effect of 1 mM chloramphenicol on HL-60 Energy Utilization (HL-60 cells [3]; [19]): 82.1 % of negative control; protective effect of energy source (HL-60 cells [3]; in the presence of 1 mM chloramphenicol): limit the effect to maintenance of the cells at the level seen with no chloramphenicol and no added energy source; carbon source utilization (ten strains of E. coli): + and −
